Experimental data taken from patent publication US20150190369A1, “QUERCETIN-3-GLUCOSIDE AND USES THEREOF” (priority 2012, published 2015).
Entries after “also recorded” stand apart in the source; their conditions may differ.

How the values were obtained:
[1] = tested on: LDLR mRNA; experiment: Quantitative RT-PCR for LDLR mRNA in Huh7 cells; type: cell-based, human; details: Huh7, 24 h, 10% LPDS, 0 to 10 μM Q3G; maximum at 2 μM, relative to no Q3G
Protocol: At passage, Huh7 cells were routinely seeded at sub-confluence (˜10^6 cells/10-cm dish) in Dulbecco's modified Eagle's medium (DMEM) containing 10% fetal bovine serum (FBS) or LPDS (for experiments) and 50 μg/ml gentamycin. They were incubated overnight at 37° C., in a humidified 5% CO2-95% air atmosphere. Cells were treated or not with Q3G at defined concentrations and for defined lengths of time. Media were collected and centrifuged at 200 g for 5 min to sediment suspended cells; supernatants were collected and supplemented with 0.33 volumes of a 3×-concentrated PIC. Cell monolayers were rinsed with ice-cold phosphate-buffered saline (PBS); they were overlaid with […] the RIPA lysis buffer (50 mM Tris-HCl, pH 8, 150 mM NaCl, 1% NP-40, 0.5% Na-deoxycholate and 0.1% SDS) supplemented with 1× PIC. After 20 min in an ice bath, the lysates were centrifuged at 14,000 g and 4° C. for 20 min, and supernatants were collected. Conditioned media and lysates were stored at −20° C. until analysis. […]
Standard curves were established using varying amounts of purified and quantified cDNA amplicons of each mRNA. […]
Huh7 cells, hepatocyte derived cellular carcinoma cells, were incubated for 24 h in medium containing 10% lipoprotein-depleted serum (LPDS) and 0 to 10 μM Q3G. The level of LDLR mRNA was measured by quantitative real-time RT-PCR; that of the LDLR protein by semi-quantitative immunoblotting. […]

[2] = tested on: PCSK9; experiment: Pulse-chase metabolic labeling and immunoprecipitation of PCSK9-related proteins in Huh7 cells; type: cell-based, human; details: Huh7 pre-incubated 24 h with 5 μM Q3G
Protocol: For metabolic labeling, Huh7 cells were seeded in a 12-well plate 8×10^5 cells/well in 1.5 ml/well of complete medium and incubated overnight. After a rinse with Dulbecco's PBS (PBS-D), cell monolayers were overlaid with 1.5 ml of DMEM/10% LPDS without or with 5 μM Q3G, and were incubated for 24 h. Fresh serum-free medium (SFM, 1.5 ml) was substituted, and cells were allowed to incubate for 30 min to reduce endogenous Met and Cys. The medium was removed and replaced with fresh SFM (0.75 ml/well) containing 300 μCi/ml^35S-Met/Cys, and cells were incubated at 37° C. for 20 min to label de novo biosynthesized proteins (pulse-labeling). The radioactive medium was replaced with DMEM/0.5% LPDS containing 10 mM non-radioactive Met/Cys and cells were incubated at 37° C. for 0, 15, 30, 60, 90 and 120 min (chase). Conditioned media and cell lysates were processed as described above.
Radioactive conditioned media or cell lysates (0.1 ml) were supplemented with […] of normal rabbit serum and 15 μl of a 50% (w/v) suspension of Protein A-agarose. After a 1-h incubation at 4° C. with rotational mixing, the samples were centrifuged at 3,000 g for 5 min at 4° C. Supernatants were supplemented 2 μl of rabbit anti-PCSK9 [35], and incubated as above. […] Specific radioactive protein bands were visualized and quantified on a Typhoon Phosphorimager (Molecular Dynamics). […]

[3] = tested on: PCSK9; experiment: ELISA for PCSK9 secreted into medium by MIN6 β-cells; type: cell-based, mouse; details: MIN6, 24 h, different concentrations of Q3G
Protocol: FIG. 15 a graph illustrating the effect of exposure to Q3G on PCSK9 secretion in MIN6 β-cells. MIN6 cells were incubated for 24 h in the presence of the specified concentration of Q3G. Media were collected and assayed by ELISA for PCSK9 content.
Mouse insulinoma MIN6 cells were cultured in a 5% CO2-95% air atmosphere at 37° C. in DMEM medium containing 10% heat-inactivated fetal bovine serum, 1 mM Na-pyruvate, 2 mM L-glutamine, 25 mM D-glucose, and 28 μM β-mercaptoethanol. Q3G at a specific final concentration was supplemented to the culture medium and incubation was conducted for a selected length of time. Media were collected, spun at 600 g to sediment suspended cells, supplemented with 0.5 volumes of 3×RIPA-PIC (1×: 50 mM Tris-HCl, pH 8, 150 mM NaCl, 1% NP-40, 0.5% Na-deoxycholate and 0.1% SDS and PIC). Cells were lysed in 1×RIPA-PIC for immuno-blotting, or in RNA extraction buffer for qRT-PCR.
The assays for PCSK9 and insulin were conducted as prescribed by kit manufacturers, using a Thermo Scientific plate reader. For example, PCSK9 levels in conditioned media were measured using the human PCSK9 ELISA kit from Circulex, as specified the manufacturer. […] After 15 min, the reaction was stopped with […] and the absorbance of the reaction mixtures measured by spectrophotometry at 450 nm. […]

SMILES: O=c1c(O[C@@H]2O[C@H](CO)[C@@H](O)[C@H](O)[C@H]2O)c(-c2ccc(O)c(O)c2)oc2cc(O)cc(O)c12 [Q3G, quercetin-3-O-β-D-glucoside]
- increase of intracellular content of LDLR mRNA (maximum) [1]: 2 ×
- rate of intracellular proPCSK9 precursor processing versus untreated cells [2]: no obvious difference
- time to half-maximum accumulation of PCSK9 in culture media (percent of total PCSK9 proteins) ([2]; control cells 60 min): 90 min
- PCSK9 in the medium (secretion) [3]: paralleled that of the transcript; also recorded: stimulates
